Measurements reported in US6410575B1, “Viral treatment” (The Procter & Gamble Company, priority 1999, dated 2002).
In brackets after ≈: the same amount, converted by molar mass. Several values for one entry are separate records, joined by “and”; a condition that tells them apart may be missing. Identical values can stand only once.

Assays:
BVDV = BVDV testing in vitro; assay type: cell-based, bovine diarrhea virus
Source text: DMSO had no effect, as expected.
BVDV is a bovine diarrhea virus and is a well known surrogate virus for hepatitis C which cannot be cultured in vitro.

Curvularia lunata = experiment: Anti-fungal activity, MIC (NCCLS M-27A based); assay type: cell-based
Description: It was active against Cryptococcus neoformans and Curvularia lunata. The cidal activity for the C. neoformans is high enough that it is clear […] against this yeast. This test was conducted using a method based upon NCCLS reference method M-27A published in 1997. Solvent, medium and growth controls were set-up with the tests. Once these were read to validate the test performance, the QC fungi were read to insure they had expected results. These steps validated the test system. DMSO was used as a drug-chemical solvent. […] The 90% cut-off is necessary for azoles, which are static and not cidal. The […] or cidal level, was determined by sub-culturing a sample from each tube showing no growth.

HIV-2 virus, CEMROD = experiment: In vitro screening test against HIV-2, reverse transcriptase activity; assay type: cell-based; set-up: Reverse Transcriptase Activity, sample / Reverse Transcriptase Activity, average: unit not given here
Source text: The results of one test are shown below

[1] = system: U937JE225R, a protease resistant strain; experiment: Long term in vitro study, U937JE225R; assay type: cell-based, HIV
Description: (§1) Toxicity quantification involves the XTT-based evaluation. Assays were designed to characterize the long term effects of the compounds on virus production and to characterize the longer term effects of the compounds on virus production from chronically HIV infected cells.
(§2) CEM-SS cells chronically infected with HIV isolate, for example SKI (CEM-SKI) are cultured in RPMI1640 tissue culture medium supplemented with 10% fetal bovine serum and antibiotics. […] CEM-SKI or other infected cells with no added drug are used as the control cells.
(§3) Cells are allowed to grow to a density of approximately 1×10^6 cells/ml and are then passaged at a 1:10 dilution. […] The drug concentration in the flask is then increased two-fold and the cells maintained as above.
(§4) The cell populations contain integrated copies of the HIV genome and constitutively produce HIV at relatively high levels or are latently infected and only produce virus after stimulation with phorbol esters, tumor necrosis factor or IL6(U1 and ACH2). Reductions in virus products were observed when quantifying supernatant reverse transcriptase activity.
The results with U937JE225R cells was reported at weekly intervals.

HIV-1 cell line, CEMRF = experiment: Long term in vitro study, CEMRF; assay type: cell-based; conditions: 7 μg/ml
Description: as §1, §2, §3, §4
The results with CEMRF cells was reported at weekly intervals.
The CEMRF is a viral strain of the CEMSS cell line.

HIV-1 integrase = HIV-1 integrase (Human immunodeficiency virus type 1 group M subtype B, UniProt P04585); experiment: Integrase inhibition assay (autoradiography); assay type: biochemical
Source text: A biochemical integrase assay described by Craigie et at (HIV, vol. 2: A practical Approach) Biochemistry, Molecular Biology and Drug Discovery, Ed. J. Kam 1995) to screen agents for their ability to inhibit HIV-1 integrase can be used. In this system, a kinased oligonucleotide serves as the target of 3′ processing and the subsequent strand transfer reaction. The 3′ processing reaction involves the removal of 2 nucleotides from the 3′ ends of the substrate. This is followed by the strand transfer reaction in which the 3′ ends are joined to the exposed 5′ ends. The 20 μl reaction mixture contains 25 mM MOPS (pH 7.2), […] BSA, 10 mM β-mercaptoethanol, 10% glycerol; 7.5 mM MnCl2, 25 nM (7 ng) substrate (Oligo's Etc., Wilsonville, Oreg.) and 200 nM (128 ng) integrase (NIAID AIDS Research and Reference Reagent Program, Bethesda, Md.). The reaction proceeds at 37° C. for 1-2 hours and is terminated by the addition of 20 μl of sequencing stop solution (USB Amersham, Arlington Heights, Ill.). The reaction products are visualized by autoradiography following electrophoresis in 15% polyacrylamide 6M Urea gel. The substrate migrates as a 30 mer, the product of 3′ processing migrates as an N-2 band and the strand transfer products migrate more slowly at various sizes larger than the substrate.
The mechanism of action of the (5-aryl-1,2,4-thiadiazol)-3-yl thiourea derivatives or (5-aryl-1,2,4-thiadizol)-3-yl urea derivatives is not known.

NC(=S)Nc1nsc(-c2ccccc2)n1
Antiviral Index (AI), TC50/IC50 (BVDV; first test): greater than 4000 | Antiviral Index (AI), TC50/IC50 (BVDV; second screening test): 1000.4 | anti-fungal activity in vitro (Curvularia lunata): active | MIC (Curvularia lunata; growth inhibited or reduced at least 90%, read-out: MIC): 0.03 µg/mL (≈ 0.127 µM) | % virus control (HIV-2 virus, CEMROD; 0.32 μg/ml): 113.2% | Reverse Transcriptase Activity, average (HIV-2 virus, CEMROD; 0.32 μg/ml): 5451 | Reverse Transcriptase Activity, sample (HIV-2 virus, CEMROD; 0.32 μg/ml): 4664 and 6972 and 4717 | % virus control (HIV-2 virus, CEMROD; 1 μg/ml): 95.5% | Reverse Transcriptase Activity, average (HIV-2 virus, CEMROD; 1 μg/ml): 4601 | Reverse Transcriptase Activity, sample (HIV-2 virus, CEMROD; 1 μg/ml): 4005 and 4407 and 5392 | % virus control (HIV-2 virus, CEMROD; 1.0 μg/ml): 66.6% | Reverse Transcriptase Activity, average (HIV-2 virus, CEMROD; 1.0 μg/ml): 3208 | Reverse Transcriptase Activity, sample (HIV-2 virus, CEMROD; 1.0 μg/ml): 3001 and 3077 and 3547 | % virus control (HIV-2 virus, CEMROD; 3.2 μg/ml): 74.9% | Reverse Transcriptase Activity, average (HIV-2 virus, CEMROD; 3.2 μg/ml): 3606 | Reverse Transcriptase Activity, sample (HIV-2 virus, CEMROD; 3.2 μg/ml): 4166 and 3318 and 3334 | % virus control (HIV-2 virus, CEMROD; 32 μg/ml): 36.4% | Reverse Transcriptase Activity, average (HIV-2 virus, CEMROD; 32 μg/ml): 1753 | Reverse Transcriptase Activity, sample (HIV-2 virus, CEMROD; 32 μg/ml): 1832 and 1550 and 1876 | % virus control (HIV-2 virus, CEMROD; 100 μg/ml): 1.2% | Reverse Transcriptase Activity, average (HIV-2 virus, CEMROD; 100 μg/ml): 57 | Reverse Transcriptase Activity, sample (HIV-2 virus, CEMROD; 100 μg/ml): 72 and 48 and 52 | virus production (supernatant reverse transcriptase activity) ([1]; 7 μg/ml, day 4): 12165 | virus production (supernatant reverse transcriptase activity) ([1]; 7 μg/ml, day 11): 9465 | virus production (supernatant reverse transcriptase activity) ([1]; 7 μg/ml, day 18): 10341 | virus production (supernatant reverse transcriptase activity) ([1]; 7 μg/ml, day 25): 9079 | virus production (supernatant reverse transcriptase activity) ([1]; 7 μg/ml, day 32): 6797 | virus production (supernatant reverse transcriptase activity) ([1]; 7 μg/ml, day 39): 9792 | virus production (supernatant reverse transcriptase activity) ([1]; 7 μg/ml, day 46): 9915 | virus production (supernatant reverse transcriptase activity) ([1]; 7 μg/ml, day 53): 1094 | virus production (supernatant reverse transcriptase activity) ([1]; 15 μg/ml, day 4): 11151 | virus production (supernatant reverse transcriptase activity) ([1]; 15 μg/ml, day 11): 9935 | virus production (supernatant reverse transcriptase activity) ([1]; 15 μg/ml, day 18): 9738 | virus production (supernatant reverse transcriptase activity) ([1]; 15 μg/ml, day 25): 7104 | virus production (supernatant reverse transcriptase activity) ([1]; 15 μg/ml, day 32): 6426 | virus production (supernatant reverse transcriptase activity) ([1]; 15 μg/ml, day 39): 10618 | virus production (supernatant reverse transcriptase activity) ([1]; 15 μg/ml, day 46): 10471 | virus production (supernatant reverse transcriptase activity) ([1]; 15 μg/ml, day 53): 9756 | virus production (supernatant reverse transcriptase activity) ([1]; 30 μg/ml, day 4): 12033 | virus production (supernatant reverse transcriptase activity) ([1]; 30 μg/ml, day 11): 9859 | virus production (supernatant reverse transcriptase activity) ([1]; 30 μg/ml, day 18): 11874 | virus production (supernatant reverse transcriptase activity) ([1]; 30 μg/ml, day 25): 5281 | virus production (supernatant reverse transcriptase activity) ([1]; 30 μg/ml, day 32): 4154 | virus production (supernatant reverse transcriptase activity) ([1]; 30 μg/ml, day 39): 5379 | virus production (supernatant reverse transcriptase activity) ([1]; 30 μg/ml, day 46): 5239 | virus production (supernatant reverse transcriptase activity) ([1]; 30 μg/ml, day 53): 4423 | virus production (supernatant reverse transcriptase activity) (HIV-1 cell line, CEMRF; day 4): 5423 | virus production (supernatant reverse transcriptase activity) (HIV-1 cell line, CEMRF; day 11): 2249 | virus production (supernatant reverse transcriptase activity) (HIV-1 cell line, CEMRF; day 18): 2951 | virus production (supernatant reverse transcriptase activity) (HIV-1 cell line, CEMRF; day 25): 3606 | EC50 (HIV-1 integrase): > 423 µM | activity as an integrase inhibitor (HIV-1 integrase): did not show activity | remaining activity at 1 µg/mL (HIV-1 integrase; 1 μg/ml, read-out: HIV-1 integrase inhibition, % no drug control): 108% | remaining activity at 10 µg/mL (HIV-1 integrase; 10 μg/ml, read-out: HIV-1 integrase inhibition, % no drug control): 117% | remaining activity at 100 µg/mL (HIV-1 integrase; 100 μg/ml, read-out: HIV-1 integrase inhibition, % no drug control): 106% | remaining activity at 0.1 µg/mL (HIV-1 integrase; read-out: HIV-1 integrase inhibition, % no drug control): 98.8%
